Measured values taken from patent publication US10143695B2 (priority 2016, dated 2018).

Key:
Format in all cases: cell-based
[1] = tested on: MCF7 cells (HER2 low expressing levels cells); experiment: CellTiter-Glo cell viability assay, MCF7; conditions: Homo sapiens, MCF7; PBD compounds, 72 h incubation
Description: (§1) PBD compounds and conjugates thereof were evaluated for their antiproliferation properties in tumor cell lines in vitro using CellTiter-Glo® (Promega Corp). Cells were plated in black walled 96-well plate and allowed to adhere overnight at 37° C. in a humidified atmosphere of 5% CO2. BT474, SKBR3, NCI-N87 cells (HER2 expressing cells), JIMT1 cells (HER2 medium expression level cells) and MCF7 cells (HER2 low expressing levels cells) and were plated at a density of 5,000 cells per well. The next day the medium was replaced with 50 μL fresh medium and 50 μL of 2× stocks of PBD compounds or antibody-PBD conjugate were added to appropriate wells, mixed and incubated for 72 h. CellTiter-Glo® reagent was added to the wells at room temperature and the luminescent signal was measured after 10 min using a SpectraMax M5 plate reader (Molecular Devices). Dose response curves were generated using SoftMax Pro software. IC50 values were determined from four-parameter curve fitting.

[2] = tested on: JIMT1 cells (HER2 medium expression level cells); experiment: CellTiter-Glo cell viability assay, JIMT1; conditions: Homo sapiens, JIMT-1; PBD compounds, 72 h incubation
Description: as §1

[3] = tested on: NCI-N87 cells (HER2 expressing cells); experiment: CellTiter-Glo cell viability assay, NCI-N87; conditions: Homo sapiens, NCI-N87; PBD compounds, 72 h incubation
Description: as §1

[4] = tested on: SKBR3 cells (HER2 expressing cells); experiment: CellTiter-Glo cell viability assay, SKBR3; conditions: Homo sapiens, SK-BR-3; PBD compounds, 72 h incubation
Description: as §1

[5] = tested on: BT474 cells (HER2 expressing cells); experiment: CellTiter-Glo cell viability assay, BT474; conditions: Homo sapiens, BT-474; PBD compounds, 72 h incubation
Description: as §1

## C=C1CC2C=Nc3cc(OCCCC(=O)Nc4cn(C)c(C(=O)Nc5cc(C(=O)Nc6cc(C(=O)NCCCO)n(C)c6)n(C)c5)n4)c(OC)cc3C(=O)N2C1 (stereo in doubt) [Compound 56, (S,Z)-N-(5-(5-(3-hydroxypropylcarbamoyl)-1-methyl-1H-pyrrol-3-ylcarbamoyl)-1-methyl-1H-pyrrol-3-yl)-4-(4-(7-methoxy-2-methylene-5-oxo-2,3,5,11a-tetrahydro-1H-benzo[e]pyrrolo[1,2-a][1,4]diazepin-8-yloxy)butanamido)-1-methyl-1H-imidazole-2-carboxamide]
[1]
  IC50: 54.5 nM
[2]
  IC50: 9 nM
[3]
  IC50: 13.6 nM
[4]
  IC50: 7.9 nM
[5]
  IC50: 23.3 nM

## C=C1C[C@H]2C=Nc3cc(OCCCC(=O)Nc4cn(C)c(C(=O)Nc5cc(C(=O)NCc6ccc(N)cc6)n(C)c5)n4)c(OC)cc3C(=O)N2C1 [Compound 3A, (S,Z)-N-(5-(4-aminobenzylcarbamoyl)-1-methyl-1H-pyrrol-3-yl)-4-(4-(7-methoxy-2-methylene-5-oxo-2,3,5,11a-tetrahydro-1H-benzo[e]pyrrolo[1,2-a][1,4]diazepin-8-yloxy)butanamido)-1-methyl-1H-imidazole-2-carboxamide]
[1]
  IC50: 214 nM
[2]
  IC50: 91 nM
[3]
  IC50: 14 nM
[4]
  IC50: 9 nM
[5]
  IC50: 69 nM

## C=C1C[C@H]2C=Nc3cc(OCCCC(=O)Nc4cn(C)c(C(=O)Nc5cc(C(=O)Nc6cc(C(=O)NCc7ccc(N)cc7)n(C)c6)n(C)c5)n4)c(OC)cc3C(=O)N2C1 [Compound 4A, (S,Z)-N-(5-(5-(4-aminobenzylcarbamoyl)-1-methyl-1H-pyrrol-3-ylcarbamoyl)-1-methyl-1H-pyrrol-3-yl)-4-(4-(7-methoxy-2-methylene-5-oxo-2,3,5,11a-tetrahydro-1H-benzo[e]pyrrolo[1,2-a][1,4]diazepin-8-yloxy)butanamido)-1-methyl-1H-imidazole-2-carboxamide]
[1]
  IC50: 1000 nM
[2]
  IC50: 11.4 nM
[3]
  IC50: 24.1 nM
[4]
  IC50: 9.4 nM
[5]
  IC50: 26.8 nM

## C=C1C[C@H]2C=Nc3cc(OCCCC(=O)Nc4cn(C)c(C(=O)Nc5cc(C(=O)N6Cc7ccc(N)cc7C6)n(C)c5)n4)c(OC)cc3C(=O)N2C1 [Compound 5A, (S,Z)-N-(5-(5-aminoisoindoline-2-carbonyl)-1-methyl-1H-pyrrol-3-yl)-4-(4-(7-methoxy-2-methylene-5-oxo-2,3,5,11a-tetrahydro-1H-benzo[e]pyrrolo[1,2-a][1,4]diazepin-8-yloxy)butanamido)-1-methyl-1H-imidazole-2-carboxamide]
[1]
  IC50: 24.2 nM
[2]
  IC50: 16 nM
[3]
  IC50: 5.3 nM
[4]
  IC50: 0.97 nM
[5]
  IC50: 2.9 nM

## C=C1C[C@H]2C=Nc3cc(OCCCC(=O)Nc4cn(C)c(C(=O)Nc5cc(C(=O)Nc6cc(C(=O)N7Cc8ccc(N)cc8C7)n(C)c6)n(C)c5)n4)c(OC)cc3C(=O)N2C1 [Compound 6A, (S,Z)-N-(5-(5-(5-aminoisoindoline-2-carbonyl)-1-methyl-1H-pyrrol-3-ylcarbamoyl)-1-methyl-1H-pyrrol-3-yl)-4-(4-(7-methoxy-2-methylene-5-oxo-2,3,5,11a-tetrahydro-1H-benzo[e]pyrrolo[1,2-a][1,4]diazepin-8-yloxy)butanamido)-1-methyl-1H-imidazole-2-carboxamide]
[1]
  IC50: 17.1 nM
[2]
  IC50: 8.9 nM
[3]
  IC50: 4.2 nM
[4]
  IC50: 1.5 nM
[5]
  IC50: 5.3 nM

## C=C1C[C@H]2C=Nc3cc(OCCCC(=O)Nc4cn(C)c(C(=O)Nc5cc(C(=O)Nc6cc(C(=O)n7ccc8cc(OC)ccc87)n(C)c6)n(C)c5)n4)c(OC)cc3C(=O)N2C1 [Compound 7A]
[1]
  IC50: 2.7 nM
[2]
  IC50: 1.1 nM
[3]
  IC50: 0.3 nM
[4]
  IC50: 0.15 nM
[5]
  IC50: 0.6 nM
